Assay results published in PubChem BioAssay (NCI).
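Dose response: 5 concentrations. Exposure: 48 h. Format: 96-well plates. Endpoint: linear interpolation; highest concentration if not reached. At the GI50, growth is halved. The concentration for full growth arrest is given as TGI.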

What was measured:
Assay in all cases: NCI tumour cell line growth inhibition, 48 h
786-0 renal = tested on: 786-0 renal
A498 renal = tested on: A498 renal
A549 NSCLC = tested on: A549 NSCLC
ACHN renal = tested on: ACHN renal
BT-549 breast = tested on: BT-549 breast
CAKI-1 renal = tested on: CAKI-1 renal
CCRF-CEM leukemia = tested on: CCRF-CEM leukemia
COLO 205 colon = tested on: COLO 205 colon
DU-145 prostate = tested on: DU-145 prostate
EKVX NSCLC = tested on: EKVX NSCLC
HCC-2998 colon = tested on: HCC-2998 colon
HCT-116 colon = tested on: HCT-116 colon
HCT-15 colon = tested on: HCT-15 colon
HL-60(TB) leukemia = tested on: HL-60(TB) leukemia
HOP-62 NSCLC = tested on: HOP-62 NSCLC
HOP-92 NSCLC = tested on: HOP-92 NSCLC
HS 578T breast = tested on: HS 578T breast
HT29 colon = tested on: HT29 colon
IGROV1 ovarian = tested on: IGROV1 ovarian
K-562 leukemia = tested on: K-562 leukemia
KM12 colon = tested on: KM12 colon
LOX IMVI melanoma = tested on: LOX IMVI melanoma
M14 melanoma = tested on: M14 melanoma
MALME-3M melanoma = tested on: MALME-3M melanoma
MCF7 breast = tested on: MCF7 breast
MDA-MB-231 breast = tested on: MDA-MB-231 breast
MDA-MB-435 = tested on: MDA-MB-435
MOLT-4 leukemia = tested on: MOLT-4 leukemia
NCI-H226 lung = tested on: NCI-H226 lung
NCI-H23 lung = tested on: NCI-H23 lung
NCI-H460 lung = tested on: NCI-H460 lung
NCI-H522 lung = tested on: NCI-H522 lung
NCI/ADR-RES ovarian = tested on: NCI/ADR-RES ovarian
OVCAR-3 ovarian = tested on: OVCAR-3 ovarian
OVCAR-4 ovarian = tested on: OVCAR-4 ovarian
OVCAR-5 ovarian = tested on: OVCAR-5 ovarian
OVCAR-8 ovarian = tested on: OVCAR-8 ovarian
PC-3 prostate = tested on: PC-3 prostate
RPMI-8226 leukemia = tested on: RPMI-8226 leukemia
RXF 393 renal = tested on: RXF 393 renal
SF-268 CNS = tested on: SF-268 CNS
SF-295 CNS = tested on: SF-295 CNS
SF-539 CNS = tested on: SF-539 CNS
SK-MEL-2 melanoma = tested on: SK-MEL-2 melanoma
SK-MEL-28 melanoma = tested on: SK-MEL-28 melanoma
SK-MEL-5 melanoma = tested on: SK-MEL-5 melanoma
SK-OV-3 ovarian = tested on: SK-OV-3 ovarian
SN12C renal = tested on: SN12C renal
SNB-19 CNS = tested on: SNB-19 CNS
SNB-75 CNS = tested on: SNB-75 CNS
SW-620 colon = tested on: SW-620 colon
TK-10 renal = tested on: TK-10 renal
U251 CNS = tested on: U251 CNS
UACC-257 melanoma = tested on: UACC-257 melanoma
UACC-62 melanoma = tested on: UACC-62 melanoma
UO-31 renal = tested on: UO-31 renal

## N=C(N)c1ccc(-c2ccc(-c3ccccc3)o2)o1
786-0 renal
  GI50: 1.74 µM
  TGI: 3.54 µM
A498 renal
  GI50: 3.03 µM
  TGI: 11.7 µM
A549 NSCLC
  GI50: 3.55 µM
  TGI: 11.7 µM
ACHN renal
  GI50: 2.56 µM
  TGI: 6.73 µM
BT-549 breast
  GI50: 4.12 µM
  TGI: 16 µM
CAKI-1 renal
  GI50: 3.4 µM
  TGI: 14.2 µM
CCRF-CEM leukemia
  GI50: 3.58 µM
  TGI: 12.4 µM
COLO 205 colon
  GI50: 1.78 µM
  TGI: 3.49 µM
DU-145 prostate
  GI50: 3.3 µM
  TGI: 11.6 µM
EKVX NSCLC
  GI50: 2.34 µM
  TGI: 9.37 µM
HCC-2998 colon
  GI50: 1.61 µM
  TGI: 3.25 µM
HCT-116 colon
  GI50: 2.06 µM
  TGI: 5.29 µM
HCT-15 colon
  GI50: 1.16 µM
  TGI: 4.22 µM
HL-60(TB) leukemia
  GI50: 2.18 µM
  TGI: 5.2 µM
HOP-62 NSCLC
  GI50: 3.59 µM
  TGI: 15.3 µM
HOP-92 NSCLC
  GI50: 1.85 µM
  TGI: 4.73 µM
HS 578T breast
  GI50: 3.81 µM
  TGI: 21.2 µM
HT29 colon
  GI50: 2.11 µM
  TGI: 4.7 µM
IGROV1 ovarian
  GI50: 2.89 µM
  TGI: 11.8 µM
K-562 leukemia
  GI50: 0.657 µM
  TGI: 3.18 µM
KM12 colon
  GI50: 2.61 µM
  TGI: 9.93 µM
LOX IMVI melanoma
  GI50: 1.7 µM
  TGI: 3.34 µM
M14 melanoma
  GI50: 1.62 µM
  TGI: 3.4 µM
MALME-3M melanoma
  GI50: 1.75 µM
  TGI: 3.53 µM
MCF7 breast
  GI50: 1.68 µM
  TGI: 5.61 µM
MDA-MB-231 breast
  GI50: 2.04 µM
  TGI: 4.9 µM
MDA-MB-435
  GI50: 0.999 µM
  TGI: 2.39 µM
MOLT-4 leukemia
  GI50: 3.31 µM
  TGI: 10.2 µM
NCI-H226 lung
  GI50: 5.7 µM
  TGI: 24.2 µM
NCI-H23 lung
  GI50: 5.78 µM
  TGI: 19.8 µM
NCI-H460 lung
  GI50: 2.45 µM
  TGI: 5.82 µM
NCI-H522 lung
  GI50: 1.94 µM
  TGI: 3.89 µM
NCI/ADR-RES ovarian
  GI50: 2.82 µM
  TGI: 11 µM
OVCAR-3 ovarian
  GI50: 3.13 µM
  TGI: 11.9 µM
OVCAR-4 ovarian
  GI50: 3.48 µM
  TGI: 14.5 µM
OVCAR-5 ovarian
  GI50: 2.7 µM
  TGI: 10.9 µM
OVCAR-8 ovarian
  GI50: 4 µM
  TGI: 16.9 µM
PC-3 prostate
  GI50: 2.64 µM
  TGI: 10.1 µM
RPMI-8226 leukemia
  GI50: 2.89 µM
  TGI: 8.21 µM
RXF 393 renal
  GI50: 2.33 µM
  TGI: 6.55 µM
SF-268 CNS
  GI50: 2.98 µM
  TGI: 12.3 µM
SF-295 CNS
  GI50: 1.81 µM
  TGI: 4.03 µM
SF-539 CNS
  GI50: 1.95 µM
  TGI: 4.43 µM
SK-MEL-2 melanoma
  GI50: 2.25 µM
  TGI: 4.2 µM
SK-MEL-28 melanoma
  GI50: 1.9 µM
  TGI: 4.41 µM
SK-MEL-5 melanoma
  GI50: 1.75 µM
  TGI: 3.19 µM
SK-OV-3 ovarian
  GI50: 4.3 µM
  TGI: 16 µM
SN12C renal
  GI50: 3.12 µM
  TGI: 10.3 µM
SNB-19 CNS
  GI50: 3.01 µM
  TGI: 10.1 µM
SNB-75 CNS
  GI50: 1.6 µM
  TGI: 4.12 µM
SW-620 colon
  GI50: 1.79 µM
  TGI: 4.2 µM
TK-10 renal
  GI50: 3.32 µM
  TGI: 11.4 µM
U251 CNS
  GI50: 2.22 µM
  TGI: 5.12 µM
UACC-257 melanoma
  GI50: 2.52 µM
  TGI: 6.35 µM
UACC-62 melanoma
  GI50: 1.93 µM
  TGI: 3.82 µM
UO-31 renal
  GI50: 1.54 µM
  TGI: 3.13 µM

## O=CC1C(=O)Nc2nc3ccccc3n2C1c1ccccc1 (stereo not given)
786-0 renal
  TGI: 24.9 µM
A498 renal
  TGI: 28.8 µM
A549 NSCLC
  TGI: 95.4 µM
ACHN renal
  TGI: 42.7 µM
BT-549 breast
  TGI: 28.4 µM
CAKI-1 renal
  TGI: 48.5 µM
CCRF-CEM leukemia
  TGI: 75.2 µM
COLO 205 colon
  TGI: 26.2 µM
DU-145 prostate
  TGI: 25.3 µM
EKVX NSCLC
  TGI: 82 µM
HCT-116 colon
  TGI: 24.9 µM
HCT-15 colon
  TGI: 37 µM
HL-60(TB) leukemia
  TGI: > 100 µM
HOP-62 NSCLC
  TGI: 20.2 µM
HOP-92 NSCLC
  TGI: 31.3 µM
HS 578T breast
  TGI: > 100 µM
HT29 colon
  TGI: 41.2 µM
IGROV1 ovarian
  TGI: 27.3 µM
K-562 leukemia
  TGI: 35.3 µM
KM12 colon
  TGI: 29.9 µM
LOX IMVI melanoma
  TGI: 23.1 µM
M14 melanoma
  TGI: 34 µM
MALME-3M melanoma
  TGI: 53.7 µM
MCF7 breast
  TGI: 27.4 µM
MDA-MB-231 breast
  TGI: 44.3 µM
MDA-MB-435
  TGI: 44.8 µM
MOLT-4 leukemia
  TGI: 5.73 µM
NCI-H226 lung
  TGI: 36.9 µM
NCI-H23 lung
  TGI: 53.5 µM
NCI-H460 lung
  TGI: 82.8 µM
NCI-H522 lung
  TGI: 26.3 µM
NCI/ADR-RES ovarian
  TGI: > 100 µM
OVCAR-3 ovarian
  TGI: 20.7 µM
OVCAR-4 ovarian
  TGI: 80.3 µM
OVCAR-5 ovarian
  TGI: 95.7 µM
OVCAR-8 ovarian
  TGI: 46.1 µM
PC-3 prostate
  TGI: 42.4 µM
RPMI-8226 leukemia
  TGI: 70.4 µM
RXF 393 renal
  TGI: 16 µM
SF-268 CNS
  TGI: 27 µM
SF-295 CNS
  TGI: 43.8 µM
SF-539 CNS
  TGI: 44.6 µM
SK-MEL-2 melanoma
  TGI: 43.7 µM
SK-MEL-28 melanoma
  TGI: 46.4 µM
SK-MEL-5 melanoma
  TGI: 28.7 µM
SN12C renal
  TGI: 28.2 µM
SNB-75 CNS
  TGI: 22.3 µM
SW-620 colon
  TGI: 43.3 µM
TK-10 renal
  TGI: 71.6 µM
U251 CNS
  TGI: 29.1 µM
UACC-257 melanoma
  TGI: 33.3 µM
UACC-62 melanoma
  TGI: 31.9 µM
UO-31 renal
  TGI: 27.4 µM
